# B1: HAMLET (protein)
# chain: KQFTKCELSQLLKDIDGYGGIALPELICTMFHTSGYDTQAIVENNESTEYGLFQISNKLWCKSSQVPQSRNICDISCDKFLDDDITDDIMCAKKILDIKGIDYWLAHKALCTEKLEQWLCEKL
# Key:
# [1] = tested on: A549 cells; assay: K^+ flux, FluxOR potassium ion channel assay (Tl^+ influx), fluorometry; type: cell-based, human; details: for K^+ flux, substance alone: HAMLET or sodium oleate alone, FluxOR, mean of at least two experiments; for K^+ flux, + oleate: peptide mixed with sodium oleate; for K^+ flux, + oleate / K^+ flux, - oleate: FluxOR fluorescence; for K^+ flux, - oleate: peptide without sodium oleate
# Procedure: (§1) To quantify the ion fluxes, fluorometry was measured in a plate reader (TECAN infinite F200, Tecan Group, Switzerland). For calcium fluxes measurement, the Fluo-4 NW calcium assay kit (Invitrogen) was used. For K^+ fluxes, the FluxOR™ potassium ion channel assay (Invitrogen) was used according to the manufacturer's instructions but component E was excluded. Briefly, cells were incubated with FluxOR™, which is a Tl^+ indicator. An increase in fluorescence signal corresponds to an influx of Tl^+, indicating opening of potassium channels, which was measured at 535 nm after excitation at 485 nm in the TECAN infinite plate reader. Given the driving force for K^+ flux across the plasma membrane this corresponds to K^+ efflux. Calcium and potassium fluxes was measured in 20 000 A549 cells plated in a 96-well plate. Sodium was measured in 100 000 Jurkat cells using the CoroNa Green Sodium Indicator (Invitrogen).
# [2] = tested on: A549 cells; assay: Ca^2+ flux, Fluo-4 NW calcium assay, fluorometry; type: cell-based, human; details: for Ca^2+ flux, substance alone: HAMLET or sodium oleate alone, Fluo-4, mean of at least two experiments; for Ca^2+ flux, + oleate: peptide mixed with sodium oleate; for Ca^2+ flux, + oleate / Ca^2+ flux, - oleate: Fluo-4 fluorescence; for Ca^2+ flux, - oleate: peptide without sodium oleate
# Procedure: as §1
# [3] = tested on: Jurkat cells; assay: Na^+ flux, CoroNa Green Sodium Indicator, fluorometry; type: cell-based, human; details: for Na^+ flux, substance alone: HAMLET or sodium oleate alone, CoroNa Green, mean of at least two experiments; for Na^+ flux, + oleate: peptide mixed with sodium oleate; for Na^+ flux, + oleate / Na^+ flux, - oleate: CoroNa Green fluorescence; for Na^+ flux, - oleate: peptide without sodium oleate
# Procedure: as §1
# [4] = tested on: lung carcinoma or leukemia cells; assay: Tumor cell death (ATP level, PrestoBlue), cell line not given; type: cell-based, human; details: 3 hours
# Procedure: A549 human lung carcinoma cell line and the Jurkat human acute T-cell leukemia cell line (obtained from ATCC, Manassas, VA, USA) were cultured in RPMI-1640 with non-essential amino acids (1∶100), 1 mM sodium pyruvate (all from PAA, Pasching, Austria), […] Gentamicin (Gibco, Paisley, UK) and 5% fetal calf serum (FCS) at 37°C, 5% CO2. Cells (5*10^5 cells/ml for A549 cells, 1*10^6 cells/ml for Jurkat cells) in suspension were incubated with either […] or peptide-oleate mixtures in serum-free RPMI-1640 at 37°C, 5% CO2. 5% FCS was added after 1 hour. Cell death was quantified by ATP level measurement (ATPlite Kit, PerkinElmer, Waltham, MA, Infinite F200, Tecan Group Ltd., Männedorf, Switzerland) and by using PrestoBlueTM Cell Viability Reagent (Invitrogen, Carlsbad, CA).
# [5] = tested on: A549 lung carcinoma cells; assay: Cell morphology by phase holographic imaging and transmission DIC; type: cell-based, human
# Procedure: For cellular uptake assays, A549 lung carcinoma cells were grown overnight on 8-well chamber slides (Nalge Nunc, Rochester, NY). Cells were incubated 1 hour with 35 μM biotinylated peptide with or without 175 μM sodium oleate (Sigma) in serum free RPMI media, followed by fixation (4% paraformaldehyde) and permeabilization (0.25% Triton X-100, 5% FCS in phosphate-buffered saline). Peptides were visualized by incubation with streptavidin-Alexa568 (Molecular Probes) and Wheat Germ Agglutinin (WGA) (Molecular Probes) was used to visualize plasma and nuclear membranes. Images were captured on a LSM510 META confocal microscope (Carl Zeiss, Jena, Germany) with pinhole settings corresponding to one airy unit. Quantification of fluorescence intensities was performed with the ImageJ software. The HoloMonitorTM M3 digital holographic microscope (Phase Holographic Imaging AB, Lund, Sweden) records 3D information of cells using interfering wave fronts induced by the exposure to a 0.8 mW HeNe laser (633 nm), resembling a Mach-Zender interferometer where the cells, placed in one of the interfering wave fronts, induce a phase difference between the two beams [26]-[28]. The interference pattern (hologram) is recorded on a digital sensor and is used to reconstruct the amplitude and phase of the object as described, [30]. […]
# [6] = Solubility of biotinylated peptide (remark); type: physicochemical; details: added at 12 µM instead of 105 uM
# [7] = Small angle X-ray scattering, state in solution; type: physicochemical; details: 2.5 and 6.5 mg/ml in phosphate-buffered saline, 15 °C
# Text: Small angle X-ray scattering (SAXS) data for HAMLET were collected at the German Electron Synchrotron (DESY) of the EMBL Hamburg using the X33 SAXS camera, [19] located on a bending magnet (sector D) on the storage ring DORIS III. Pilatus 1 M pixel detector (67×420 mm^2) that operates in single photon counting mode was used. A sample - detector distance of 2.4 m which covers the range of momentum transfer 0.1<s<4.5 nm^−1 (s = 4π sin(q)/λ, where q is the scattering angle and λ = 0.15 nm is the X-ray wavelength) was utilized. The calibration of the s-axis was done by the scattering pattern of Silver-behenate salt (d-spacing 5.84 nm). For each sample measurement the scattering from the buffer was measured before and after. The average scattering for the before and after buffer measured was calculated and it is used for background subtraction for each sample. In order to assess and remove any concentration-dependant inter-particle effects for HAMLET, the protein concentrations 2.5 and 6.5 mg/ml in phosphate-buffered saline were used for the measurement. Automated sample-changing robot was used for injecting the protein as well as the buffer samples at the SAXS station X33 [20]. […]
# By comparing the forward scattering from the reference solution of bovine serum albumin (BSA), the molecular mass of HAMLET was calculated as described in [18]. […]
# [8] = tested on: glioblastomas, papillomas and bladder cancer; details: ref [1]–[3]; cited from earlier work
# Text: Healthy, differentiated cells are much less sensitive to HAMLET and toxic effects on healthy tissues have not been observed in tumor models.
Molecule,"K^+ flux, substance alone [1]","Ca^2+ flux, substance alone [2]","Na^+ flux, substance alone [3]",Tumor cell killing in the absence of peptide ([4]; sodium oleate alone),"Cell morphology by transmission light DIC, oleate-free peptide or oleate alone ([5]; A549, 1 h)","K^+ flux, + oleate [1]","K^+ flux, - oleate [1]","Ca^2+ flux, + oleate [2]","Ca^2+ flux, - oleate [2]","Na^+ flux, + oleate [3]","Na^+ flux, - oleate [3]",Solubility [6],"Reduction of cell viability ([4]; HAMLET (positive control) or peptide mixed with sodium oleate, cell line not given) [%]","Morphological change by holographic imaging ([5]; adherent A549 cells, HAMLET or peptide-oleate mixture, images every 15 minutes)",Oligomeric state in solution ([7]; SAXS forward scattering vs BSA reference),Protein aggregation (Guinier plot) ([7]; SAXS),Therapeutic efficacy in vivo [8]
"CCCCCCCC/C=C\CCCCCCCC(=O)O [Sodium oleate, sodium oleate, reference compound]",significant K^+ fluxes,not observed,not observed,did not kill the tumor cells,remain as flat and extended,–,–,–,–,–,–,–,–,–,–,–,–
"AAKKILDIKGIDYWL [Peptide 10, 15-amino-acid peptide of α-lactalbumin library]",–,–,–,–,–,No,No,weaker Ca^2+ flux,weaker Ca^2+ flux,Weak Na^+ fluxes,–,–,–,–,–,–,–
"AKSSQVPQSRNIADI [Peptide 7, 15-amino-acid peptide of α-lactalbumin library]",–,–,–,–,–,No,No,No,No,No,No,–,–,–,–,–,–
"ATEKLEQWLAEKL [Peptide 12, C-terminal peptide of α-lactalbumin library]",–,–,–,–,–,No,No,No,No,No,No,–,–,–,–,–,–
"FHTSGYDTQAIVENN [Peptide 4, 15-amino-acid peptide of α-lactalbumin library]",–,–,–,–,–,No,No,No,No,No,No,–,–,–,–,–,–
"GLFQISNKLWAKSSQ [Peptide 6, 15-amino-acid peptide of α-lactalbumin library]",–,–,–,–,–,No,No,weaker Ca^2+ flux,No,Weak Na^+ fluxes,–,lower solubility,–,–,–,–,–
"IALPELIATMFHTSG [Peptide 3, 15-amino-acid peptide of α-lactalbumin library]",–,–,–,–,–,No,No,No,No,No,No,–,–,–,–,–,–
"IDYWLAHKALATEKL [Peptide 11, 15-amino-acid peptide of α-lactalbumin library]",–,–,–,–,–,triggered K^+ fluxes and Yes,triggered K^+ fluxes and Yes,increased Ca^2+ fluxes and Yes,increased Ca^2+ fluxes and Yes,No,No,–,–,–,–,–,–
"IVENNESTEYGLFQI [Peptide 5, 15-amino-acid peptide of α-lactalbumin library]",–,–,–,–,–,No,No,No,No,No,No,–,–,–,–,–,–
"KQFTKAELSQLLKDI [Peptide 1, 15-amino-acid peptide of α-lactalbumin library, numbered from the N-terminal]",–,–,–,–,–,triggered K^+ fluxes and Yes,triggered K^+ fluxes and Yes,No,No,No,No,–,–,–,–,–,–
"LDDDITDDIMAAKKI [Peptide 9, 15-amino-acid peptide of α-lactalbumin library]",–,–,–,–,–,No,No,No,No,No,No,–,–,–,–,–,–
"LLKDIDGYGGIALPE [Peptide 2, 15-amino-acid peptide of α-lactalbumin library]",–,–,–,–,–,No,No,No,No,No,No,–,–,–,–,–,–
"NIADISADKFLDDDI [Peptide 8, 15-amino-acid peptide of α-lactalbumin library]",–,–,–,–,–,No,No,No,No,No,No,–,–,–,–,–,–
B1,rapid and sustained,rapid and sustained,Na^+ fluxes,–,–,–,–,–,–,–,–,–,90,"increase in cellular optical thickness and a reduction in adherent surface area after 30 minutes, followed by cell detachment at later time points",monomeric,no protein aggregation,therapeutic efficacy

# From paper PMC3531425, “Low Resolution Solution Structure of HAMLET and the Importance of Its Alpha-Domains in Tumoricidal Activity” (PLoS ONE, 2012)
